Results as given in PMC4141209 (FEBS Open Bio, 2014).
Like-named read-outs stand apart in the source and are kept apart here.

Experiments:
[1] = test system: TlLhpI; test: NADH oxidation at […] nm; type: biochemical, Thermococcus litoralis; conditions: NADH 0.15 mM, NH4Cl 700 mM, Tris-HCl pH 8.0, 50 °C
[2] = test system: TlLhpI; conditions: NADH 0.15 mM, NH4Cl 700 mM, Tris-HCl pH 8.0, 50 °C
[3] = test system: TlLhpI; test: NAD+ reduction at […] nm; type: biochemical, Thermococcus litoralis
[4] = test system: TlLhpI; conditions: NAD+ 1.5 mM, Bis-tris propane pH 10.5, 50 °C
[5] = test system: TlLhpI; conditions: NADH 0.15 mM, potassium phosphate pH 6.0, 50 °C
[6] = test system: TlLhpI; test: NADH oxidation at […] nm; type: biochemical, Thermococcus litoralis; conditions: NADH 0.15 mM, potassium phosphate pH 6.0, 50 °C
[7] = NAD+ 1.5 mM, Bis-tris propane pH 10.5, 50 °C
[8] = NAD+-dependent oxidation, 50 °C

SMILES	Km [1] [µM]	Km [3, 7] [µM]	also measured
CCC(=O)C(=O)O [2-Oxobutyrate]	701 ± 20		
CCCC(=O)C(=O)O [2-Oxovalerate]	969 ± 93		Km [2]: 1820 ± 140 µM
CC(C)CC(=O)C(=O)O [4-Methyl-2-oxovalerate]	2520 ± 450		
CC[C@H](N)C(=O)O [L-2-Aminobutyrate]		6000 ± 290	
CCC[C@H](N)C(=O)O [L-2-Aminovalerate]		306 ± 9	Km [4]: 2130 ± 300 µM
C[C@H](N)C(=O)O [L-Alanine]		18200 ± 5000	Km [4]: 36900 ± 900 µM
CC(C)C[C@H](N)C(=O)O [L-Leucine]		1320 ± 100	
O=C(O)[C@@H]1CCCCN1 [L-Pipecolate]			Km [3, 8]: 608 ± 115 µM
CN[C@@H](C)C(=O)O [N-Methyl-L-alanine]			Km [3, 8]: 406 ± 44 µM
O=C(O)C1=NCCC1 [Pyr2C, Δ^1-pyrroline-2-carboxylate]			Km [5]: 2770 ± 440 µM; Km [6]: 944 ± 90 µM

Now from value to molecule, other results behind:

Km [1] [µM]	Km [3, 7] [µM]	SMILES	also measured
	1120 ± 120	O=C(O)[C@@H]1CCCN1 [L-Proline]	Km [4]: 444 ± 8 µM
8860 ± 910		O=C(O)CC(=O)C(=O)O [Oxalacetate]	
9370 ± 230		CC(=O)C(=O)O [Pyruvate]	Km [2]: 62000 ± 12200 µM
